Measurements published in ChEMBL document CHEMBL1201862, “PubChem BioAssay data set” (2004).
Where a name gives a salt, the structure may show the parent alone. One block for each compound: values may come before it. Calls of active or inactive are those of the source.

Experiments:
[1] = molecular target: Sphingosine 1-phosphate receptor 1 (Homo sapiens, UniProt P21453); assay: Late stage counterscreen assay for S1P4 antagonists: Fluorescence dose response cell-based screening assay for antagonists of the Sphingosine 1-Phosphate Receptor 1 (S1P1). [Related pubchem assays (depositor defined):AID1510, AID1524, AID1692, AID1853, AID2332, AID489009, AID489017]; assay type: functional
[2] = molecular target: Sphingosine 1-phosphate receptor 2 (Homo sapiens, UniProt O95136); assay: Late stage counterscreen assay for S1P4 antagonists: Fluorescence dose response cell-based screening assay for antagonists of the Sphingosine 1-Phosphate Receptor 2 (S1P2). [Related pubchem assays (depositor defined):AID1510, AID1524, AID1692, AID1853, AID2332, AID489009, AID489017]; assay type: functional
[3] = molecular target: Sphingosine 1-phosphate receptor 3 (Homo sapiens, UniProt Q99500); assay: Late stage counterscreen assay for S1P4 antagonists: Fluorescence dose response cell-based screening assay for antagonists of the Sphingosine 1-Phosphate Receptor 3 (S1P3). [Related pubchem assays (depositor defined):AID1510, AID1524, AID1692, AID1853, AID2332, AID489009, AID489017]; assay type: functional
[4] = molecular target: Sphingosine 1-phosphate receptor 5 (Homo sapiens, UniProt Q9H228); assay: Late stage counterscreen assay for S1P4 antagonists: Fluorescence dose response cell-based screening assay for antagonists of the Sphingosine 1-Phosphate Receptor 5 (S1P5). [Related pubchem assays (depositor defined):AID1510, AID1524, AID1692, AID1853, AID2332, AID489009, AID489017]; assay type: functional
Sequence of Sphingosine 1-phosphate receptor 5 (Q9H228 whole entry): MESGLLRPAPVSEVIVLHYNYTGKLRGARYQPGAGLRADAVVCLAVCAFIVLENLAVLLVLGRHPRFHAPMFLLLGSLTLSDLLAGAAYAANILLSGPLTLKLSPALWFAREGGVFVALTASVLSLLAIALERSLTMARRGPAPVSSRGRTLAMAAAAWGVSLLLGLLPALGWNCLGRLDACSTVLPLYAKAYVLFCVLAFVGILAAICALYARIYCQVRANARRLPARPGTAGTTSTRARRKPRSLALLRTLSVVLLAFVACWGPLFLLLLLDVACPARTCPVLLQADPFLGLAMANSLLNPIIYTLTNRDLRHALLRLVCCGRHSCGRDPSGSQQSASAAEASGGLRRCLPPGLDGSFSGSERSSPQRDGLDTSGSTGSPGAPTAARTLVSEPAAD

[5] = molecular target: T1, Voltage-gated N-type calcium channel alpha-1B subunit/Amyloid beta A4 precursor protein-binding family A member 1 (Homo sapiens, UniProt Q00975+Q02410); assay: disruptors of Mint-PDZ/N-type channel peptide interaction – biochemical, HTRF, set 2, SAR follow-up (AID 434980); assay type: functional
SUMO E1/E2 = SUMO E1/E2 (Homo sapiens, UniProt P63279+Q9UBE0+Q9UBT2); assay: SAR analysis of SUMOylation using HTRF in an in-Vitro dose response assay. [Related pubchem assays (depositor defined):AID2006, AID2011, AID2018, AID2069, AID2658]; assay type: functional
Sequence of SUMO E1/E2 (Q9UBE0 whole entry): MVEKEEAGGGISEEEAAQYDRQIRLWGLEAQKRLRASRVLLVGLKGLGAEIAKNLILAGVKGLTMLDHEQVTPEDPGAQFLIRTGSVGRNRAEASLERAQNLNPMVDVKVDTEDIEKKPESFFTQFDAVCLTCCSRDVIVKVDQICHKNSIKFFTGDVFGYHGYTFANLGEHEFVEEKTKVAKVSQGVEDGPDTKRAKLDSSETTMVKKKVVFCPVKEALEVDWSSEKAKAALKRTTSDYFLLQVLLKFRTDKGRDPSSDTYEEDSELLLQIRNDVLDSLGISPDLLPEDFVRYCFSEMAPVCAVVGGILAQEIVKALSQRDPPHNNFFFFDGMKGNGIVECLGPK
Sequence of SUMO E1/E2 (Q9UBT2 whole entry): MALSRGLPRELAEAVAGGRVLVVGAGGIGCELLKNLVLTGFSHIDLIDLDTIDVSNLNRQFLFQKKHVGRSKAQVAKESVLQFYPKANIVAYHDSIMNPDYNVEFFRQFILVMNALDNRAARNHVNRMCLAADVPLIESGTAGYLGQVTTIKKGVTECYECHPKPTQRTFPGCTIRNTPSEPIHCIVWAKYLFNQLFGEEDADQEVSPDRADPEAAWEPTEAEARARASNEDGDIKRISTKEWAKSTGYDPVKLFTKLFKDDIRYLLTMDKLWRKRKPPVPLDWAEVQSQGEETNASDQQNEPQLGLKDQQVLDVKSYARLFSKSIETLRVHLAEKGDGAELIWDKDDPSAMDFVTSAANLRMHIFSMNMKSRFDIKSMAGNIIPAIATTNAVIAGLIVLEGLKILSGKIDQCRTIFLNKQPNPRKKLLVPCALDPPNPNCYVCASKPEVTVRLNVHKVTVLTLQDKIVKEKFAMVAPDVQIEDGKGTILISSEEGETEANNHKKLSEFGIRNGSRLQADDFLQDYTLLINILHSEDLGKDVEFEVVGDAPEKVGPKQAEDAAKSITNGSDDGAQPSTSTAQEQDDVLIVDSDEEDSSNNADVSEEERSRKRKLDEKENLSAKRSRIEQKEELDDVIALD
Sequence of SUMO E1/E2 (P63279 whole entry): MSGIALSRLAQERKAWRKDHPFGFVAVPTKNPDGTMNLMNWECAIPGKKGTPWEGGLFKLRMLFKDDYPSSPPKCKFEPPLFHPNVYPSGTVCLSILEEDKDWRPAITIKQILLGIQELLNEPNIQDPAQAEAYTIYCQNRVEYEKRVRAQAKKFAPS

[6] = molecular target: T1, Voltage-gated N-type calcium channel alpha-1B subunit/Amyloid beta A4 precursor protein-binding family A member 1; assay: disruptors of Mint-PDZ/N-type channel peptide interaction – biochemical, HTRF, SAR follow-up (AID 2489); assay type: functional
[7] = molecular target: T2, Ubiquitin-conjugating enzyme E2 N (Homo sapiens, UniProt P61088); assay type: functional
T2 sequence (P61088 whole entry): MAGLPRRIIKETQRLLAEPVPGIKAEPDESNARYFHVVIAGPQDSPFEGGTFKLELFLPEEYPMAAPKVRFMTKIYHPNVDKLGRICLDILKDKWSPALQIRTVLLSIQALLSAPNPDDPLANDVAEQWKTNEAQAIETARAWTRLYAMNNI

[8] = molecular target: T2, Ubiquitin-conjugating enzyme E2 N; assay type: functional; remark: listed apart in the source
Bcl-2-related protein A1 = molecular target: T3, Bcl-2-related protein A1 (Mus musculus, UniProt Q07440); assay type: functional;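 further: confirmatory dose–response counterscreen on Bfl-1, used to check hits from a UBC13 polyubiquitin inhibitor campaign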
T3 sequence (Q07440 whole entry): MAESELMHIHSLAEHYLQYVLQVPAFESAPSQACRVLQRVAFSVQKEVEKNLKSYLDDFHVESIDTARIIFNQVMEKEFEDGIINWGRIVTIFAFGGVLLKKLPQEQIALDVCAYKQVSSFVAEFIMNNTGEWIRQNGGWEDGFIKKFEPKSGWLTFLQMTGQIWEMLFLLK

Paired box protein Pax-8 = Paired box protein Pax-8 (Homo sapiens, UniProt Q06710); assay: inhibitors of PAX8-driven TPO luciferase reporter, dose response, RMG-I cells, cherry-pick (AID 687027); assay type: functional, cell-based;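 further: luciferase reporter driven by Pax8 target thyroperoxidase promoter measured by SteadyGlo luminescence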
Sequence of Paired box protein Pax-8 (Q06710 whole entry): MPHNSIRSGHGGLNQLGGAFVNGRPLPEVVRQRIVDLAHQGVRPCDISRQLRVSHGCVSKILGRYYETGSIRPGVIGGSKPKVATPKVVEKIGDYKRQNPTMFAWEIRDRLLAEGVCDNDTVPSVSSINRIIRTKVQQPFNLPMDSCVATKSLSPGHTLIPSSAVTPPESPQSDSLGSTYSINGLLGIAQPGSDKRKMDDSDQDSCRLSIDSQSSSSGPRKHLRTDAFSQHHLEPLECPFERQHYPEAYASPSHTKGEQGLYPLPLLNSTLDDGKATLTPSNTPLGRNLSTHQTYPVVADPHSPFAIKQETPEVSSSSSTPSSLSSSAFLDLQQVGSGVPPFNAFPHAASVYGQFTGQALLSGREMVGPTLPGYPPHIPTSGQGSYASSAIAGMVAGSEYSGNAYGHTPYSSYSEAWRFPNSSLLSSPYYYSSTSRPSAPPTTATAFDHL

HEK293 [9] = assay: cells; conditions: Homo sapiens
HEK293 [10] = assay: cells; conditions: Homo sapiens; remark: listed apart in the source
[11] = molecular target: Voltage-dependent T-type calcium channel subunit alpha-1H (Homo sapiens, UniProt O95180); assay: Cav3.2 T-type channel inhibitors, synthesized analogs, SAR follow-up, cell-based, synthetic library set 2, HEK293 HH8, Fluo-4 (AID 493023); assay type: functional
Sequence of Voltage-dependent T-type calcium channel subunit alpha-1H (O95180 whole entry): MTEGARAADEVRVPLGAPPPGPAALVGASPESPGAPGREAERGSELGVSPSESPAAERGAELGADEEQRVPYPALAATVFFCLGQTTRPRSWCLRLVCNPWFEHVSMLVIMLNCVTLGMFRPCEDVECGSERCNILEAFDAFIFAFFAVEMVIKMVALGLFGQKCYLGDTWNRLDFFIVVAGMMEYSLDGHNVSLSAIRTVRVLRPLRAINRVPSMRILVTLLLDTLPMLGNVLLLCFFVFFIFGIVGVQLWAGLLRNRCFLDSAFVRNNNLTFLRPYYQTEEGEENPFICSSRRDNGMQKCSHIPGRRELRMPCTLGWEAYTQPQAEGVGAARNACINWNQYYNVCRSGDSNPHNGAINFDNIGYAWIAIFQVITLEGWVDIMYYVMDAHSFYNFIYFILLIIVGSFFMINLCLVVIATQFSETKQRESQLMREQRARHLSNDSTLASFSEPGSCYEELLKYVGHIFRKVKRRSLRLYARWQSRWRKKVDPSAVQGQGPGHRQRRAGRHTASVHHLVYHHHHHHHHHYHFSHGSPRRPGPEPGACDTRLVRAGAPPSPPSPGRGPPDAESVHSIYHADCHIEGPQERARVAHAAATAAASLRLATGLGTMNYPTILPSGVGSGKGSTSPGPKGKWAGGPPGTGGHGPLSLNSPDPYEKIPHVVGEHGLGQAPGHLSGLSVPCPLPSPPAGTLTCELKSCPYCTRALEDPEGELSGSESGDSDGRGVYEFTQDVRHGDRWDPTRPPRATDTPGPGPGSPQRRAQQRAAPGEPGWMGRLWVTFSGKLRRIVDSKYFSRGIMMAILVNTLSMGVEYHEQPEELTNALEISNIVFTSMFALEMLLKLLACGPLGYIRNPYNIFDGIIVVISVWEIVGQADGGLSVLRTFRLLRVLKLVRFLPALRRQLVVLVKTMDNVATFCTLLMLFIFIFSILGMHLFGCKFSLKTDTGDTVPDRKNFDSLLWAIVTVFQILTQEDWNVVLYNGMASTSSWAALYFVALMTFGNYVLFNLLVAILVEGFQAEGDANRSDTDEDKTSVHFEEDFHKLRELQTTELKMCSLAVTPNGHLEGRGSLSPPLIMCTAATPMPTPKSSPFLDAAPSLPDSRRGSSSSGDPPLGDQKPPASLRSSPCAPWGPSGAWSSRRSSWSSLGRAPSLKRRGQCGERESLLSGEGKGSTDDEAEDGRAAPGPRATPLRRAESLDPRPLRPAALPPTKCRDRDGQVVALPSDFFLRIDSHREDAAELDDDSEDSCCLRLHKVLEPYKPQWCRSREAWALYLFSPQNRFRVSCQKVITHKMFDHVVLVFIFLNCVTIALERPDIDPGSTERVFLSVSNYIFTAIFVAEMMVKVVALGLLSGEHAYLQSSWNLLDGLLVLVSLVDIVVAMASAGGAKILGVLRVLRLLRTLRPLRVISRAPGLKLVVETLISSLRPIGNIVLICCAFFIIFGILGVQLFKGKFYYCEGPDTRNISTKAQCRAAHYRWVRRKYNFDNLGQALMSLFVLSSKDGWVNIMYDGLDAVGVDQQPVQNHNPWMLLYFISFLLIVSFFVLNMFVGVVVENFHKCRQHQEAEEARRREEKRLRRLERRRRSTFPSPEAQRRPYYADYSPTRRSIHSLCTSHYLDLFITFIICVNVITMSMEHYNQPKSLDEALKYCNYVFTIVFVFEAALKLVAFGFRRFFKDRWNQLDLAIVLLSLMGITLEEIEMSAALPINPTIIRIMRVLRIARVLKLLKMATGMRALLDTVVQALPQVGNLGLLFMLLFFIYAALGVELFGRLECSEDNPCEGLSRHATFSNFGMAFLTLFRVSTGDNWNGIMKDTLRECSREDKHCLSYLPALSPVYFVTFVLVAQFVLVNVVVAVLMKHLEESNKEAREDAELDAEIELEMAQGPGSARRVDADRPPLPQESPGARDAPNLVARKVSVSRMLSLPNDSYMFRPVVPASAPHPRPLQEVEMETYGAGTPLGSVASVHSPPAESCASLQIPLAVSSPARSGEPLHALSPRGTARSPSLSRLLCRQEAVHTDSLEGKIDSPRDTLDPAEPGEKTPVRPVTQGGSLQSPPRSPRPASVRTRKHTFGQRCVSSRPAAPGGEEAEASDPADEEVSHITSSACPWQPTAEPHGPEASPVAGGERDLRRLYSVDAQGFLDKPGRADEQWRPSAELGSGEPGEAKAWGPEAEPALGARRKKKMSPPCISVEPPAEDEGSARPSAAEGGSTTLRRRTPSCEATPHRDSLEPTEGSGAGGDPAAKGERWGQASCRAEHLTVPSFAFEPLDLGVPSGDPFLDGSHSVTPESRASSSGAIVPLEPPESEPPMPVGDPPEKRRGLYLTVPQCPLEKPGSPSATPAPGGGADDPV

Cytochrome P450 2D6 = Cytochrome P450 2D6 (Homo sapiens, UniProt P10635);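 further: CYP2D6 member of a cytochrome P450 panel assay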
Sequence of Cytochrome P450 2D6 (P10635 whole entry): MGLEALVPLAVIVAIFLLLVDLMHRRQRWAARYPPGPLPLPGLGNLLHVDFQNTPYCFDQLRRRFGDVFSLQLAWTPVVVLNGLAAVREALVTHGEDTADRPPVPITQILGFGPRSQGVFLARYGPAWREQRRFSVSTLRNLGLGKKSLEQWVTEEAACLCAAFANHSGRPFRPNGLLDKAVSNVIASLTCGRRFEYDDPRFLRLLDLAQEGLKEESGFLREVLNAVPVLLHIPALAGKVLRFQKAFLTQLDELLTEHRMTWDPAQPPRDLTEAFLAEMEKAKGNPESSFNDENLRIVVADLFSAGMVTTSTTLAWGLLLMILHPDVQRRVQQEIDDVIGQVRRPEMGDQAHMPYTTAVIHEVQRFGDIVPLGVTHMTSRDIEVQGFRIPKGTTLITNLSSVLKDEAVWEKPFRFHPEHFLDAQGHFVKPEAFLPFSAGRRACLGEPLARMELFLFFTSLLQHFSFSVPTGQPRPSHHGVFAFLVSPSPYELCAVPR

Cytochrome P450 2C9 = Cytochrome P450 2C9 (Homo sapiens, UniProt P11712)

Structure (SMILES): CC(C)c1cccc(C(C)C)c1NC(=O)c1ccc(-c2cc(Cl)ccc2Cl)o1
- IC50 [1]: > 25 µM (inactive)
- IC50 [2]: > 25 µM (inactive)
- IC50 [3]: > 25 µM (inactive)
- IC50 [4]: 12.7 µM (inactive)

Structure (SMILES): O=C(NCCCN1CCN(c2ccccc2)CC1)C1CCCN(c2ncnc3c2nc2n3CCCCC2)C1 (stereo not given)
- IC50 [7]: 7.51 µM (active)
- IC50 [8]: 7.05 µM (active)
- IC50 (Bcl-2-related protein A1): > 20 µM (inactive)

Structure (SMILES): CCOC(=O)c1c(-c2ccc(F)cc2)csc1NC(=O)CN1C(=O)NC2(CCCCC2C)C1=O (stereo not given)
- AC50 (Paired box protein Pax-8): 4.11 µM (active)
- EC50 (HEK293 [9]): > 59.6 µM (inactive)
- EC50 (HEK293 [10]): > 59.6 µM (inactive)

Structure (SMILES): CC(C)(C)CCN1CCC[C@H](NC(=O)COc2ccc(F)c(Cl)c2)C1
- EC50 [11]: 10 µM (active)

Structure (SMILES): O=C(NC1CCC2CN(Cc3ccccc3)CC21)c1cc(Cl)cc(Cl)c1 (stereo not given)
- EC50 [11]: 4 µM (active)

Structure (SMILES): NCCCNCCCCNCCCN [SPERMINE TETRAHYDROCHLORIDE]
- IC50 [7]: 14.3 µM (active)
- IC50 [8]: 15.6 µM (active)
- IC50 (Bcl-2-related protein A1): > 20 µM (inactive)

Second part, the compound after the results:

- IC50 [5]: > 56.8 µM (inactive)
- IC50 (SUMO E1/E2): 4.07 µM (active)
- IC50 [6]: > 56.8 µM (inactive)
Structure (SMILES): O=C(COC(=O)c1cc(-c2ccco2)nc2ccccc12)NCc1ccccc1

- AC50 (Cytochrome P450 2D6): inconclusive
- AC50 (Cytochrome P450 2C9): inconclusive
Structure (SMILES): Cn1c(SCC(=O)N/N=C/C=C\c2ccco2)nc2ccccc21
